Test results from article PMC8904554, “Discovery of antimicrobials by massively parallelized growth assays (Me^x)” (Scientific Reports, 2022).
Read-outs that look alike come from different tables or passages of the source. Ends that are not written are not given here.

Assays:
E. coli TOP10 = assay: microbe, parasite or virus in culture; format: cell-based, Escherichia coli; details: for MIC [µM] 25%MHB: 25% (diluted) Mueller-Hinton Broth; for MIC [µM] 25%MHB / MIC [µM] 100%MHB: 5 × 10^5 cells ml^−1, twofold dilutions, 18 h, 37 °C, no shaking, OD read-out, MIC = < 5% of OD of growth control, mean, n = 3; for MIC [µM] 100%MHB: 100% Mueller-Hinton Broth; for MIC: Escherichia coli, TOP10, read-out: MIC of ampicillin (control) against E. coli TOP10, control
Method: On the same day at which MIC assays were executed, purified peptides were thawed and the concentration was determined by HPLC as described before. […] The cultures were then supplemented with 20% glycerol, aliquoted, and frozen at − 80 °C. […] Then the peptides were added by the liquid handling system in twofold dilutions using minimum of 100 µg ml^−1 as the highest concentration. MICs were determined as broth microdilution assay in 384-well flat bottom polypropylene plates (Falcon 96-Well Flat-Bottom Microplate) adapted from the protocol of Wiegand et al.[43]. The plates were sealed airtight and incubated for 18 h without shaking at 37 °C before reading the OD using a Tecan Infinite 200 PRO plate reader. […] MIC experiments were performed at least in triplicate.

human erythrocytes = assay: Hemolysis assay using chemically synthesized peptides; format: cell-based; details: for Hemolysis at 16MIC: peptide at 16 × MIC; for Hemolysis at 16MIC / Hemolysis at MIC: human erythrocytes 1:50 in DPBS, 1 h, 37 °C, absorbance 540 nm, relative to full lysis with […] Triton-X100, n = 4; for Hemolysis at MIC: peptide at MIC; for hemolytic activity, in words: MIC/16 to 16 × MIC; on Hemolysis at 16MIC: relative to full lysis with 2.5% Triton-X100
Method: Two samples of human blood were obtained from a blood bank (Blutspendezentrum SRK at the University Hospital Basel). The samples were pooled and erythrocytes were isolated by repeated centrifugation at 500×g for 10 min, removal of the blood plasma and resuspending the remaining cells in an equal volume of DPBS. Following last resuspension, erythrocytes were diluted 1:50 in DPBS. […] To each well of the dilution plate, 100 μl of the red blood cells suspension was added. The plate was incubated for 1 h at 37 °C. […] The absorbance was measured at 540 nm using an Infinite M1000 PRO plate reader (Tecan) and corrected by the measurements from the untreated wells. The lysis of each peptide concentration was expressed relative to the lysis control (set as 100% lysis). […]

[1] = tested on: Enterococcus faecalis ATCC 29212; format: cell-based; details: chemically synthesized peptide, mean, n = 3
Method: (§1) On the same day at which MIC assays were executed, purified peptides were thawed and the concentration was determined by HPLC as described before. E. coli TOP10 cells were grown in Mueller Hinton Broth (MHB) or diluted MHB (25% of the original strength) overnight to stationary phase. Diluted MHB has been frequently used to assay antimicrobial peptides. The cultures were then supplemented with 20% glycerol, aliquoted, and frozen at − 80 °C. […] Then the peptides were added by the liquid handling system in twofold dilutions using minimum of 100 µg ml^−1 as the highest concentration. MICs were determined as broth microdilution assay in 384-well flat bottom polypropylene plates (Falcon 96-Well Flat-Bottom Microplate) adapted from the protocol of Wiegand et al.[43]. The plates were sealed airtight and incubated for 18 h without shaking at 37 °C before reading the OD using a Tecan Infinite 200 PRO plate reader. […] MIC experiments were performed at least in triplicate.

E. coli ATCC 25922 = format: cell-based; details: chemically synthesized peptide, mean, n = 3
Method: as §1

[2] = tested on: Pseudomonas aeruginosa ATCC 47085; format: cell-based; details: chemically synthesized peptide, mean, n = 3
Method: as §1

[3] = tested on: Klebsiella pneumonia ATCC 13883; format: cell-based; details: chemically synthesized peptide, mean, n = 3
Method: as §1

[4] = tested on: Staphylococcus aureus ATCC 29213; format: cell-based; details: chemically synthesized peptide, mean, n = 3
Method: as §1

bacteria = tested on: bacteria; set-up: method as in earlier work; details: ref supplement references 1-15 (Table S1); cited from earlier work
E.coli = tested on: E.coli; set-up: method as in earlier work; details: ref supplement references 1-15 (Table S1); cited from earlier work
[5] = Precipitation observed in the membrane damage assay; format: physicochemical; details: 100% MHB, printed as higher than 4xMIC (16 µM)
Method: The bacterial strain suspension was furthermore supplemented with a final concentration of 1 µg ml^−1 propidium iodide just before pipetting the assay. […] The fractions of PI-positive and GFP-positive were determined with the same gate for all populations using the FlowJo V10 software (BD Biosciences). The extracellular membrane integrity assay was performed in biological duplicates analyzing at least 10,000 cells in each experiment.

Row | Molecule | MIC [µM] 25%MHB (E. coli TOP10) [µM] | MIC [µM] 100%MHB (E. coli TOP10) [µM] | Hemolysis at 16MIC (human erythrocytes) [%] | Hemolysis at MIC (human erythrocytes) [%] | also measured
1 | LKDKVKSMGEKLKQYIQTWKAKF [Latarcin 4a 5147 APD] | 5 | 8 | 2.8 | 0.2 | –
2 | GWFKKAWRKVKHAGRRVLDTAKGVGRHYLNNWLNRYR [HFIAP-1 4545 NCBI] | 0.5 | 0.5 | 18.9 | 4.1 | MIC [µm] in MHB [1]: 5.6 µM; MIC [µm] in MHB (E. coli ATCC 25922): 0.7 µM; MIC [µm] in MHB [2]: 0.7 µM; MIC [µm] in MHB [3]: 0.4 µM; MIC [µm] in MHB [4]: 1.4 µM; hemolytic activity, in words (human erythrocytes): displayed hemolytic activity at higher concentrations
3 | AIAKLVAKFGWPIVKKYYKQIMQFIGEGWAINKIIEWIKK [Enterocin RJ-11 3780 NCBI] | 1 | 0.5 | 103.3 | 22.7 | hemolysis at the MIC compared to the Triton-X100 control (toxicity towards human erythrocytes) (human erythrocytes): > 5%
4 | CC1(C)S[C@@H]2[C@H](NC(=O)[C@H](N)c3ccccc3)C(=O)N2[C@H]1C(=O)O [ampicillin, reference compound] | – | – | – | – | MIC (E. coli TOP10; 25% MHB): 17 µM; MIC (E. coli TOP10; 100% MHB): 34 µM
5 | VSKIKKYLKYKDRI [P-10 8942 APD] | 13 | > 60 | 2.2 | 0.5 | –
6 | GKFSGFAKILKSIAKFFKGVGKVRKGFKEASDLDKNQ [Oxyopinin 2b 9690 APD] | 0.5 | 0.5 | 63.4 | 0.7 | hemolytic activity, in words (human erythrocytes): displayed hemolytic activity at higher concentrations
7 | VDKGGYLPRPTPPRPVYR [Pyrrhocoricin 7122 NCBI] | 8 | 20 | 2.3 | 1.1 | –
8 | Pyrrhocoricin PARENT: PARENT peptide on the APD, a ribosomal inhibitor | – | – | – | – | Reported antibacterial mechanism of action of parent (bacteria): Translation inhibition; Previously reported activity against E.coli of parent (E.coli): active
9 | TALKGAAKELASTYQH [Maximin 3 5468 NCBI] | > 60 | > 60 | – | – | –
10 | GFKDWIKGAAKKLIKTVASSIANE [Ascaphin-6 9286 APD] | 1 | 0.8 | 1.4 | 0 | –
11 | KRFKKFFKKLKKSVKKRAKKFFKKPRVIGVSIPF [BF-CATH 9639 APD] | 1 | 1 | 4.8 | 2.1 | –
12 | CC[C@H](C)[C@H](NC(=O)[C@H](Cc1c[nH]c2ccccc12)NC(=O)[C@H](CCCCN)NC(=O)[C@@H](NC(=O)[C@H](CC(C)C)NC(=O)[C@H](CC(=O)O)NC(=O)CNC(=O)[C@@H](NC(=O)[C@@H](NC(=O)[C@H](CO)NC(=O)[C@@H](NC(=O)[C@@H](NC(=O)[C@H](CC(=O)O)NC(=O)[C@H](C)NC(=O)[C@H](C)NC(=O)[C@@H](N)CCSC)[C@@H](C)CC)[C@@H](C)CC)[C@@H](C)O)[C@@H](C)CC)C(C)C)C(=O)N[C@H](C(=O)N[C@@H](CC(=O)O)C(=O)N[C@H](C(=O)N[C@H](C(=O)N[C@@H](CC(N)=O)C(=O)N[C@@H](CCCCN)C(=O)N[C@@H](Cc1ccccc1)C(=O)N[C@@H](CCCCN)C(=O)O)C(C)C)[C@@H](C)O)[C@@H](C)CC [Delta lysin I 3458 NCBI] | > 60 | > 60 | – | – | –
13 | VKLIQIRIWIQYVTVLQMFSMKTKQ [Meucin-25 11598 APD] | > 60 | > 60 | – | – | –
14 | Melittin: highly membrane damaging peptide used as a control [reference compound] | – | – | – | – | concentration above which the peptide started to precipitate [5]: > 16 µM; hemolysis at the MIC compared to the Triton-X100 control (toxicity towards human erythrocytes) (human erythrocytes): > 5%
